Common to all, as to assay type: functional, cell-based
Test [1] deals with MDA-MB-231. The test can be described thus: Cytotoxicity against human MDA-MB-231 cells assessed as reduction in cell viability upto 100 uM incubated for 24 hrs by MTT assay. The note with it: dose microM <=100, time 24.0 hrs.
The subject of test [2] is MDA-MB-231. The test can be described thus: Inhibition of cell migration in human MDA-MB-231 at 70 uM incubated for 24 hrs by scratch wound healing assay.
A further test deals with L5178Y. The test can be described thus: Cytotoxicity against mouse L5178Y cells assessed as reduction in cell viability incubated for 24 hrs by MTT assay. (In general: Tetrazolium dyes change colour on reduction, which living cells bring about.)

SMILES strings stand for the structures. Calls of active or inactive are those of the source. No cut-off for these calls is given here.

Consider `COC(=O)c1cc(O)cc(OC)c1C(=O)c1c(O)cc(C)c(Cl)c1O`, for which, in the test with MDA-MB-231 [1], the outcome was inactive.

In the case of `COC(=O)c1cc(O)cc(OC)c1C(=O)c1c(O)cc(C)cc1O` [SULOCHRIN], the outcome in the test on MDA-MB-231 [1] was inactive. Moreover, the inhibition result in the test with MDA-MB-231 [2] was “Active”. Also, in the test on L5178Y, the concentration for half-maximal inhibition (IC50) (usually the point on the concentration scale where inhibition reaches its midpoint) was 5.1 µM.

These data come from ChEMBL document CHEMBL4673329, “Polyketides from the marine-derived fungus Aspergillus falconensis: In silico and in vitro cytotoxicity studies” (Bioorg Med Chem, 2021).
